pIC50: −log10 of the molar value. Where a SMILES comes first, the peptide text is derived from it. [ ]: non-standard residue; d: D form. Ahx = NCCCCCC(=O)O
Experiments:
hY2-receptor = molecular target: T1, hY2-receptor (Homo sapiens, UniProt P49146); assay: Radioligand displacement binding on SMS-KAN membranes
T1 sequence (P49146 1-381): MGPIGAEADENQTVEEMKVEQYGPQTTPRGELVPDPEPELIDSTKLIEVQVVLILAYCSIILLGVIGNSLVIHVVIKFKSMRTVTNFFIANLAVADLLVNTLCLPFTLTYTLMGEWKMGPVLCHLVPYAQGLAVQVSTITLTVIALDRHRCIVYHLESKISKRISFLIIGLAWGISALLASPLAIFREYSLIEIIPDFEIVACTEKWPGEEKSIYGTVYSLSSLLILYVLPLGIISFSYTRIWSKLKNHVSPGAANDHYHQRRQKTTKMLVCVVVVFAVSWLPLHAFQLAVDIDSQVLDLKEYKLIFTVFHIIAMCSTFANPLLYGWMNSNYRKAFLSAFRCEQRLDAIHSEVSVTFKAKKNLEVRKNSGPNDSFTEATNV

hY5-receptor = molecular target: T2, hY5-receptor (Homo sapiens, UniProt Q15761); assay: Radioligand displacement binding on transfected BHK membranes
T2 sequence (Q15761 1-445): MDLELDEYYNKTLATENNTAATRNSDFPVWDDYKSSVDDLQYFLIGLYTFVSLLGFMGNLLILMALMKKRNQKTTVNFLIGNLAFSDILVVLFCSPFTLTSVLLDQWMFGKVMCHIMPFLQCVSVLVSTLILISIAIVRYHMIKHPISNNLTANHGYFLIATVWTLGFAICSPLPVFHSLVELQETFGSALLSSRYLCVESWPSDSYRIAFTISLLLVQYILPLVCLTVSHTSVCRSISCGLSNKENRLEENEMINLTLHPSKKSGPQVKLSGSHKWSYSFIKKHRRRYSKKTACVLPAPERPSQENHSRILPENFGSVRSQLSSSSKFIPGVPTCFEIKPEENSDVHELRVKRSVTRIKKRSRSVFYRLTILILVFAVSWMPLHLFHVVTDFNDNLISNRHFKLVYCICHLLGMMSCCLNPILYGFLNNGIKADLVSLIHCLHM

hY1-receptor = molecular target: T3, hY1-receptor (Homo sapiens, UniProt P25929); assay: Radioligand displacement binding on SK-N-MC membranes
T3 sequence (P25929 1-384): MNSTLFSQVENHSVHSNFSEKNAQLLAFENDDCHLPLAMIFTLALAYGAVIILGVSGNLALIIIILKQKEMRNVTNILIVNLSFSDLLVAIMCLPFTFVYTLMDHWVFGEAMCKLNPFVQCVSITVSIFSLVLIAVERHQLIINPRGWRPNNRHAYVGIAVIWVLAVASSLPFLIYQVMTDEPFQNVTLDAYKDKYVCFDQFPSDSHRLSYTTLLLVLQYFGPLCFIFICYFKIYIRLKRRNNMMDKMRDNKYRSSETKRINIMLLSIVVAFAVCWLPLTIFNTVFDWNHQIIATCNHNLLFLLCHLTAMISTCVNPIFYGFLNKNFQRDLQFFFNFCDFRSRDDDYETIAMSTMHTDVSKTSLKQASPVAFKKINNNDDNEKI

hY4-receptor = hY4-receptor (Homo sapiens, UniProt P50391); assay: Radioligand displacement binding on transfected BHK membranes
Sequence of hY4-receptor (P50391 whole entry): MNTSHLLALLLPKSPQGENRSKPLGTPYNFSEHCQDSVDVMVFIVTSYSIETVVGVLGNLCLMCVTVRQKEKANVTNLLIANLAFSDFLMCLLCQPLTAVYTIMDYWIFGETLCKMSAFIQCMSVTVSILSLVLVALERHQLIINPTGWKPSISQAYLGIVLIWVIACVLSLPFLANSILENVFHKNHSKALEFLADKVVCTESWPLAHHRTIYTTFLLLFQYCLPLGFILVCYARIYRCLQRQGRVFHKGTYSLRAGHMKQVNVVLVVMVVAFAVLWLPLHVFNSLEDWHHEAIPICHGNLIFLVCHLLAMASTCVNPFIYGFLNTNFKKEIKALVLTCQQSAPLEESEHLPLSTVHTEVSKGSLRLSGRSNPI

| Compound | pIC50 (hY2-receptor) | pIC50 (hY5-receptor) | pIC50 (hY1-receptor) | pIC50 (hY4-receptor) |
| --- | --- | --- | --- | --- |
| CC[C@H](C)[C@H](NC(=O)[C@H](Cc1ccc(O)cc1)NC(=O)[C@H](CCCNC(=N)N)NC(=O)[C@H](CCCNC(=N)N)NC(=O)[C@H](CC(C)C)NC(=O)[C@H](CC(=O)O)NC(=O)[C@H](C)NC(=O)[C@H](C)NC(=O)CCCCCNC(=O)[C@H](CCC(=O)O)NC(=O)[C@H](CC(C)C)NC(=O)[C@@H]1CCCN1C(=O)[C@H](C)N)C(=O)N[C@@H](CC(N)=O)C(=O)N[C@@H](CCSC)C(=O)N[C@@H](CC(C)C)C(=O)N[C@H](C(=O)N[C@@H](CCCNC(=N)N)C(=O)N1CCC[C@H]1C(=O)N[C@@H](CCCNC(=N)N)C(=O)N[C@@H](Cc1ccc(O)cc1)C(N)=O)[C@@H](C)O [[Ahx^5-20]-hPP] (H-APLE[Ahx]AADLRRYINMLTRPRY-NH2) | < 6.00 | < 5.15 | < 5.82 | 6.67 |
| CC[C@H](C)[C@H](NC(=O)[C@H](Cc1ccc(O)cc1)NC(=O)[C@H](Cc1c[nH]cn1)NC(=O)[C@H](CCCNC(=N)N)NC(=O)CCCCCNC(=O)[C@H](CCCCN)NC(=O)[C@H](CO)NC(=O)[C@@H]1CCCN1C(=O)[C@@H](N)Cc1ccc(O)cc1)C(=O)N[C@@H](CC(N)=O)C(=O)N[C@@H](CC(C)C)C(=O)N[C@H](C(=O)N[C@H](C(=O)N[C@@H](CCCNC(=N)N)C(=O)N1CCC[C@H]1C(=O)N[C@@H](CCCNC(=N)N)C(=O)N[C@@H](Cc1ccc(O)cc1)C(N)=O)[C@@H](C)O)[C@@H](C)CC [[Ahx^5-24, ^P34]-NPY] (H-YPSK[Ahx]RHYINLITRPRY-NH2) |  | < 5.00 |  | 6.29 |
| CC[C@H](C)[C@H](NC(=O)[C@H](Cc1ccc(O)cc1)NC(=O)[C@H](Cc1cnc[nH]1)NC(=O)[C@H](CCCNC(=N)N)NC(=O)CCCCCNC(=O)[C@H](CCCCN)NC(=O)[C@H](CO)NC(=O)[C@@H]1CCCN1C(=O)[C@@H](N)Cc1ccc(O)cc1)C(=O)N[C@@H](CC(N)=O)C(=O)N[C@@H](CC(C)C)C(=O)N[C@H](C(=O)N[C@H](C(=O)N[C@@H](CCCNC(=N)N)C(=O)N[C@@H](CCC(N)=O)C(=O)N[C@@H](CCCNC(=N)N)C(=O)N[C@@H](Cc1ccc(O)cc1)C(N)=O)[C@@H](C)O)[C@@H](C)CC [[Ahx^5-24]-NPY] (H-YPSK[Ahx]RHYINLITRQRY-NH2) | 8.85 | 6.10 | < 6.00 | 6.22 |
| CC[C@H](C)[C@H](NC(=O)[C@H](Cc1ccc(O)cc1)NC(=O)[C@H](CCCNC(=N)N)NC(=O)[C@H](CCCNC(=N)N)NC(=O)CCCCCNC(=O)[C@H](CCC(=O)O)NC(=O)[C@H](CC(C)C)NC(=O)[C@@H]1CCCN1C(=O)[C@H](C)N)C(=O)N[C@@H](CC(N)=O)C(=O)N[C@@H](CCSC)C(=O)N[C@@H](CC(C)C)C(=O)N[C@H](C(=O)N[C@@H](CCCNC(=N)N)C(=O)N1CCC[C@H]1C(=O)N[C@@H](CCCNC(=N)N)C(=O)N[C@@H](Cc1ccc(O)cc1)C(N)=O)[C@@H](C)O [[Ahx^5-24]-hPP] (H-APLE[Ahx]RRYINMLTRPRY-NH2) | < 6.00 | < 6.00 | < 6.30 | 6.84 |
| CC[C@H](C)[C@H](NC(=O)[C@H](Cc1ccc(O)cc1)NC(=O)[C@H](Cc1c[nH]cn1)NC(=O)[C@H](CCCNC(=N)N)NC(=O)[C@H](CC(C)C)NC(=O)[C@H](C)NC(=O)[C@H](CO)NC(=O)[C@H](Cc1ccc(O)cc1)NC(=O)CCCCCNC(=O)[C@H](CC(N)=O)NC(=O)[C@H](CC(=O)O)NC(=O)[C@@H]1CCCN1C(=O)[C@H](CCCCN)NC(=O)[C@H](CO)NC(=O)[C@@H]1CCCN1C(=O)[C@@H](N)Cc1ccc(O)cc1)C(=O)N[C@@H](CC(N)=O)C(=O)N[C@@H](CC(C)C)C(=O)N[C@H](C(=O)N[C@H](C(=O)N[C@@H](CCCNC(=N)N)C(=O)N[C@@H](CCC(N)=O)C(=O)N[C@@H](CCCNC(=N)N)C(=O)N[C@@H](Cc1ccc(O)cc1)C(N)=O)[C@@H](C)O)[C@@H](C)CC [[Ahx^8-20]-NPY] (H-YPSKPDN[Ahx]YSALRHYINLITRQRY-NH2) |  | 7.51 |  | 7.17 |
